The subject of test [1] is Isolated cardiac myocytes from nNOS deficient rats. Kind of test: Isolated cardiac myocytes: sarcomere length and systolic calcium transient responses. Format: cell-based. To be noted: versus baseline; for sarcomere length (SL), a measure of myocardial contraction (% change from baseline): FIG. 1A; for systolic calcium transient (% change from baseline): FIG. 1B. Here is the method: Isolated cardiac myocytes from nNOS deficient rats (known to have increased xanthine oxidase activity), were evaluated for responses at baseline (BL or bl), then to allopurinol, then to nitrated allopurinol. The concentration of allopurinol used was 0.5×10^−3 M. The concentration of nitrated allopurinol used was 10^−4M. Evaluation was carried out for sarcomere length (SL), a measure of myocardial contraction, and for systolic calcium transient which drives myocardial contraction. The results for evaluation of sarcomere length are shown in FIG. 1A and results for evaluation of systolic calcium transient are shown in FIG. 1B.

In test [2] the test system is Alzheimer's disease. The experiment in a line: Patient case, Alzheimer's disease (Working Example XI). In kind it is in vivo. As to conditions: 300 mg/day; after 3 months. Here is the method: A person with Alzheimer's disease is begun on 300 mg/day nitrated allopurinol (16). Their memory and cognitive function stabilizes after 3 months.
For test [3], the system named is leg pain and diabetes. The experiment in a line: Patient case, leg pain and diabetes (Working Example XII). As to conditions: 300 mg/day. In kind it is in vivo.
In test [4] the test system is bleomycin-induced lung injury. Kind of test: Patient case, bleomycin-induced lung injury (Working Example VII). Format: in vivo. As to conditions: 300 PO BID; over the following week; on 50% oxygen; from 60 (on 100% oxygen). The source says:
A person with bleomycin-induced lung injury is begun on nitrated allopurinol (16), 300 PO BID. The PO2 improves from 60 (on 100% oxygen) to 65 mm Hg on 50% oxygen over the following week.

Test [5] concerns dilated cardiomyopathy. Kind of test: Patient case, dilated cardiomyopathy (Working Example II). In kind it is in vivo. As to conditions: 300 mg PO BID, over the ensuing week. An excerpt: A person presents with a dilated cardiomyopathy and is begun on a standard regimen including ace inhibitors, diuretics, and digoxin with little improvement.
Test [6] relates to crush wound to their left lower extremity, ischemic for six hours. The experiment in a line: Patient case, ischemic crush wound with revascularization (Working Example IV). In kind it is in vivo. As to conditions: emergency surgery. An excerpt: A person has a crush wound to their left lower extremity and undergoes emergency surgery.
Test [7] deals with class 3 angina. The experiment in a line: Patient case, class 3 angina (Working Example III). In kind it is in vivo. As to conditions: 300 mg/day; over two weeks; class 3 before treatment. Here is the method: A person with class 3 angina is begun on nitrated allopurinol (16), 300 mg/day.
In test [8] the test system is congestive heart failure and a dilated cardiomyopathy. Kind of test: Patient case, congestive heart failure and dilated cardiomyopathy (Working Example IX). In kind it is in vivo. As to conditions: 300 mg POQD, one week later. How it is done: A person with congestive heart failure and a dilated cardiomyopathy is begun on nitrated allopurinol (16), 300 mg POQD. One week later, their ejection fraction had improved from 35% to 40%, their blood pressure had decreased from 130/80 to 110/80, and […] pO2 has improved from 70 to 80 mm Hg on room air.

In test [9] the test system is ALS. Kind of test: Patient case, ALS (Working Example XIII). In kind it is in vivo. As to conditions: 300 mg/day; after three weeks. Here is the method:
A person with ALS with progressive deterioration, stabilizes after three weeks at 300 mg/day of nitrated allopurinol (16).

The subject of test [10] is Parkinson's disease. The experiment in a line: Patient case, Parkinson's disease (Working Example X). To be noted: 300 mg/day; after three weeks; treated with L-dopa. Format: in vivo. The source says: A person with Parkinson's disease treated with L-dopa has persistent tremor and motor problems.
Test [11] has as its system asthmatic with frequent exacerbations. Kind of test: Patient case, asthma (Working Example XIV). In kind it is in vivo. As to conditions: 300 mg/day. How it is done: A asthmatic with frequent exacerbations is begun on 300 mg/day nitrated allopurinol (16).
The test system of test [12] is sickle cell disease. Kind of test: Patient case, sickle cell disease (Working Example V). To be noted: 300 mg/day, over the following year. In kind it is in vivo. Here is the method:
A person with sickle cell disease presents with pulmonary hypertension and LFT abnormalities. They had had four admissions to the emergency in the past year with painful crisis. They are begun n 300 mg/day of nitrated allopurinol (16) with a decrease in their pulmonary artery pressure over the following year from a mean of 35 mm Hg to 30 mm Hg.

Test [13] relates to hyperlipidemia. The experiment in a line: Patient case, hyperlipidemia with calcification of coronaries and aorta (Working Example VI). As to conditions: 300 mg/day; over the following two years. In kind it is in vivo.

For the compound `Oc1ncnc2[nH]ncc12` [allopurinol, reference compound], in test [1] (allopurinol 0.5×10^−3 M), the “sarcomere length (SL), a measure of myocardial contraction (% change from baseline)” value is “rise” and the “systolic calcium transient (% change from baseline)” value is given as “rise”.

Take `O=c1c2cnn(CCCO[N+](=O)[O-])c2ncn1CCCO[N+](=O)[O-]` [nitrated allopurinol (16), 1,5-bis(3-nitrooxypropyl)-1,5-dihydro-4H-pyrazolo[3,4-d]pyrimidin-4-one]: the “memory and cognitive function” value in [2] was “stabilizes”. In addition, the “pain (leg pain)” value in [3] was “pain decreases”. Besides, the “distance they can walk” value in test [3] (unresponsive to treatment before) is listed as “improves”. The compound further showed a PO2 in [4] of 65 mm Hg. In addition, in [5], the shortness of breath entry is listed as “decrease in a shortness of breath”. Also, the left ventricular function entry in [5] (on standard regimen with little improvement) is “improvement of left ventricular function”. Moreover, in [6], the “aggravation of injury following revascularization” value is on record as “no aggravation of injury following revascularization”. Also, the angina classification result in [7] is reported as “improved to class 2”. Moreover, in test [8], the symptoms on angina entry was “decreased”. Further, the ejection fraction in [8] (from 35%) was 40%. In addition, in [8] (from 130/80), the blood pressure was 110/80. For the same compound, the pO2 in [8] (on room air, from 70) amounted to 80 mm Hg. For the same compound, the progressive deterioration entry in [9] was “stabilizes”. Also, the “symptoms (persistent tremor and motor problems)” value in test [10] was “symptoms improve”. For the same compound, the steroid use entry in test [11] is “successfully tapered”. Moreover, the LFT abnormalities entry in test [12] was “resolve”. In test [12] (four admissions with painful crisis in the past year), the painful crisis result was “only one painful crisis”. Besides, in test [12] (from a mean of 35 mm Hg), the “pulmonary artery pressure (mean)” value is on record as 30 mm Hg. The “disease (calcification of coronaries and aorta)” value in test [13] is on record as “mild regression of their disease”. In addition, in test [1] (nitrated allopurinol 10^−4M), the “sarcomere length (SL), a measure of myocardial contraction (% change from baseline)” value was “increase obtained for nitrated allopurinol being greater than increase obtained for allopurinol” and the “systolic calcium transient (% change from baseline)” value is listed as “increase obtained for nitrated allopurinol being greater than increase obtained for allopurinol”.

These data come from patent US7956062B2, “Reactive oxygen generating enzyme inhibitor with nitric oxide bioactivity and uses thereof” (Duke University, priority 2004, dated 2011).
